Source: patent US12077503B2, “Substituted cyclic amides and their use as herbicides” (FMC CORPORATION, priority 2015, dated 2024)

Legend:
Assay type in all cases: in vivo
[1] = tested on: velvetleaf (Abutilon theophrasti); test: Test G Post-Emergence Protocol; details: Abutilon theophrasti, post-emergence, 312 h; for pest or weed control at 15.625 g/ha: 15.625 g ai/ha, evaluated after 13 days (100=total damage to plant; 0=no damage to plant), read-out: Velvetleaf damage rating; for pest or weed control at 62.5 g/ha: 62.5 g ai/ha, read-out: Velvetleaf damage rating (100=total damage to plant; 0=no damage to plant); for pest or weed control at 62.5 g/ha / pest or weed control at 250 g/ha: evaluated after 13 days; for pest or weed control at 250 g/ha: 250 g ai/ha, read-out: damage to plant, Velvetleaf (100=total damage to plant; 0=no damage to plant)
Procedure, shortened: (§1)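 Seedlings grown 8 days in soil in a glasshouse (24/16 °C day/night, 14 h light, 65% humidity) were sprayed post-emergence with compound in acetone/water 50:50 plus 0.5% Tween 20 at 15.625, 62.5 or 250 g/ha. Damage was scored after 13 days on a 0–100 scale (100 = total damage).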

[2] = tested on: redroot pigweed (Amaranthus retroflexus); test: Test G Post-Emergence Protocol; details: Amaranthus retroflexus, post-emergence, 312 h; for pest or weed control at 15.625 g/ha: 15.625 g ai/ha, evaluated after 13 days (100=total damage to plant; 0=no damage to plant), read-out: Pigweed, Redroot damage rating; for pest or weed control at 62.5 g/ha: 62.5 g ai/ha, read-out: Pigweed, Redroot damage rating (100=total damage to plant; 0=no damage to plant); for pest or weed control at 62.5 g/ha / pest or weed control at 250 g/ha: evaluated after 13 days; for pest or weed control at 250 g/ha: 250 g ai/ha, read-out: damage to plant, Pigweed, Redroot (100=total damage to plant; 0=no damage to plant)
Procedure, shortened: as §1

corn (Zea mays) [3] = test: Test G Post-Emergence Protocol; details: Zea mays, post-emergence, 312 h; for plant injury at 15.625 g/ha: 15.625 g ai/ha, evaluated after 13 days (100=total damage to plant; 0=no damage to plant), read-out: Corn damage rating; for plant injury at 62.5 g/ha: 62.5 g ai/ha, read-out: Corn damage rating (100=total damage to plant; 0=no damage to plant); for plant injury at 62.5 g/ha / plant injury at 250 g/ha: evaluated after 13 days; for plant injury at 250 g/ha: 250 g ai/ha, read-out: damage to plant, Corn (100=total damage to plant; 0=no damage to plant)
Procedure, shortened: as §1

[4] = tested on: giant foxtail (Setaria faberi); test: Test G Post-Emergence Protocol; details: Setaria faberi, post-emergence, 312 h; for pest or weed control at 15.625 g/ha: 15.625 g ai/ha, evaluated after 13 days (100=total damage to plant; 0=no damage to plant), read-out: Foxtail, Giant damage rating; for pest or weed control at 62.5 g/ha: 62.5 g ai/ha, read-out: Foxtail, Giant damage rating (100=total damage to plant; 0=no damage to plant); for pest or weed control at 62.5 g/ha / pest or weed control at 250 g/ha: evaluated after 13 days; for pest or weed control at 250 g/ha: 250 g ai/ha, read-out: damage to plant, Foxtail, Giant (100=total damage to plant; 0=no damage to plant)
Procedure, shortened: as §1

[5] = tested on: ivy-leaved morning glory (Ipomoea hederacea); test: Test G Post-Emergence Protocol; details: Ipomoea, post-emergence, 312 h; for pest or weed control at 15.625 g/ha: 15.625 g ai/ha, evaluated after 13 days (100=total damage to plant; 0=no damage to plant), read-out: Morningglory, Ivy-leaved damage rating; for pest or weed control at 62.5 g/ha: 62.5 g ai/ha, read-out: Morningglory, Ivy-leaved damage rating (100=total damage to plant; 0=no damage to plant); for pest or weed control at 62.5 g/ha / pest or weed control at 250 g/ha: evaluated after 13 days; for pest or weed control at 250 g/ha: 250 g ai/ha, read-out: damage to plant, Morningglory, Ivy-leaved (100=total damage to plant; 0=no damage to plant)
Procedure, shortened: as §1

[6] = tested on: barnyardgrass (Echinochloa crus-galli); test: Test G Post-Emergence Protocol; details: Echinochloa crus-galli, post-emergence, 312 h; for pest or weed control at 15.625 g/ha: 15.625 g ai/ha, evaluated after 13 days (100=total damage to plant; 0=no damage to plant), read-out: Barnyardgrass damage rating; for pest or weed control at 62.5 g/ha: 62.5 g ai/ha, read-out: Barnyardgrass damage rating (100=total damage to plant; 0=no damage to plant); for pest or weed control at 62.5 g/ha / pest or weed control at 250 g/ha: evaluated after 13 days; for pest or weed control at 250 g/ha: 250 g ai/ha, read-out: damage to plant, Barnyardgrass (100=total damage to plant; 0=no damage to plant)
Procedure, shortened: as §1

[7] = tested on: velvetleaf (Abutilon theophrasti); test: Test G Pre-Emergence Protocol; details: Abutilon theophrasti, pre-emergence, 312 h, evaluated after 13 days; for pest or weed control at 15.625 g/ha: 15.625 g ai/ha; for pest or weed control at 15.625 g/ha / pest or weed control at 250 g/ha: read-out: Velvetleaf damage rating (100=total damage to plant; 0=no damage to plant); for pest or weed control at 62.5 g/ha: 62.5 g ai/ha, 100=total damage to plant, 0=no damage to plant, read-out: plant damage rating, Velvetleaf; for pest or weed control at 250 g/ha: 250 g ai/ha
Procedure, shortened: (§2)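 Spraying took place one day after sowing, at 15.625, 62.5 or 250 g/ha, using an acetone/water (50:50) spray solution containing 0.5% Tween 20. Plants were kept under glasshouse conditions (24/16 °C, 14 h light, 65% humidity, watered twice daily), and injury was rated 0–100 at day 13.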

[8] = tested on: redroot pigweed (Amaranthus retroflexus); test: Test G Pre-Emergence Protocol; details: Amaranthus retroflexus, pre-emergence, 312 h, evaluated after 13 days; for pest or weed control at 15.625 g/ha: 15.625 g ai/ha; for pest or weed control at 15.625 g/ha / pest or weed control at 250 g/ha: read-out: Pigweed, Redroot damage rating (100=total damage to plant; 0=no damage to plant); for pest or weed control at 62.5 g/ha: 62.5 g ai/ha, 100=total damage to plant, 0=no damage to plant, read-out: plant damage rating, Pigweed, Redroot; for pest or weed control at 250 g/ha: 250 g ai/ha
Procedure, shortened: as §2

corn (Zea mays) [9] = test: Test G Pre-Emergence Protocol; details: Zea mays, pre-emergence, 312 h, evaluated after 13 days; for plant injury at 15.625 g/ha: 15.625 g ai/ha; for plant injury at 15.625 g/ha / plant injury at 250 g/ha: read-out: Corn damage rating (100=total damage to plant; 0=no damage to plant); for plant injury at 62.5 g/ha: 62.5 g ai/ha, 100=total damage to plant, 0=no damage to plant, read-out: plant damage rating, Corn; for plant injury at 250 g/ha: 250 g ai/ha
Procedure, shortened: as §2

[10] = tested on: giant foxtail (Setaria faberi); test: Test G Pre-Emergence Protocol; details: Setaria faberi, pre-emergence, 312 h, evaluated after 13 days; for pest or weed control at 15.625 g/ha: 15.625 g ai/ha; for pest or weed control at 15.625 g/ha / pest or weed control at 250 g/ha: read-out: Foxtail, Giant damage rating (100=total damage to plant; 0=no damage to plant); for pest or weed control at 62.5 g/ha: 62.5 g ai/ha, 100=total damage to plant, 0=no damage to plant, read-out: plant damage rating, Foxtail, Giant; for pest or weed control at 250 g/ha: 250 g ai/ha
Procedure, shortened: as §2

[11] = tested on: ivy-leaved morning glory (Ipomoea hederacea); test: Test G Pre-Emergence Protocol; details: Ipomoea, pre-emergence, 312 h, evaluated after 13 days; for pest or weed control at 15.625 g/ha: 15.625 g ai/ha, read-out: Morning-glory, Ivy-leaved damage rating (100=total damage to plant; 0=no damage to plant); for pest or weed control at 62.5 g/ha: 62.5 g ai/ha, 100=total damage to plant, 0=no damage to plant, read-out: plant damage rating, Morningglory, Ivy-leaved; for pest or weed control at 250 g/ha: 250 g ai/ha, read-out: Morningglory, Ivy-leaved damage rating (100=total damage to plant; 0=no damage to plant)
Procedure, shortened: as §2

[12] = tested on: barnyardgrass (Echinochloa crus-galli); test: Test G Pre-Emergence Protocol; details: Echinochloa crus-galli, pre-emergence, 312 h, evaluated after 13 days; for pest or weed control at 15.625 g/ha: 15.625 g ai/ha, read-out: Barnyard grass damage rating (100=total damage to plant; 0=no damage to plant); for pest or weed control at 62.5 g/ha: 62.5 g ai/ha, 100=total damage to plant, 0=no damage to plant, read-out: plant damage rating, Barnyardgrass; for pest or weed control at 250 g/ha: 250 g ai/ha, read-out: Barnyardgrass damage rating (100=total damage to plant; 0=no damage to plant)
Procedure, shortened: as §2

SMILES	pest or weed control at 15.625 g/ha [1] [%]	pest or weed control at 62.5 g/ha [1] [%]	pest or weed control at 250 g/ha [1] [%]	pest or weed control at 15.625 g/ha [2] [%]	pest or weed control at 62.5 g/ha [2] [%]	pest or weed control at 250 g/ha [2] [%]	plant injury at 15.625 g/ha (corn (Zea mays) [3]) [%]	plant injury at 62.5 g/ha (corn (Zea mays) [3]) [%]	plant injury at 250 g/ha (corn (Zea mays) [3]) [%]	pest or weed control at 15.625 g/ha [4] [%]	pest or weed control at 62.5 g/ha [4] [%]	pest or weed control at 250 g/ha [4] [%]	pest or weed control at 15.625 g/ha [5] [%]	pest or weed control at 62.5 g/ha [5] [%]	pest or weed control at 250 g/ha [5] [%]	pest or weed control at 15.625 g/ha [6] [%]	pest or weed control at 62.5 g/ha [6] [%]	pest or weed control at 250 g/ha [6] [%]	pest or weed control at 15.625 g/ha [7] [%]	pest or weed control at 62.5 g/ha [7] [%]	further results
CN1C[C@@H](c2ccc(C(F)(F)F)cc2)[C@H](C(=O)Nc2cccc(F)c2C#N)C1=O (racemic) [Compound 1637]	0	10	30	40	70	70	0	0	10	60	80	80	0	20	30	20	70	70	0	0	pest or weed control at 250 g/ha [7]: 0%; pest or weed control at 15.625 g/ha [8]: 20%; pest or weed control at 62.5 g/ha [8]: 50%; pest or weed control at 250 g/ha [8]: 60%; plant injury at 15.625 g/ha (corn (Zea mays) [9]): 0%; plant injury at 62.5 g/ha (corn (Zea mays) [9]): 0%; plant injury at 250 g/ha (corn (Zea mays) [9]): 30%; pest or weed control at 15.625 g/ha [10]: 60%; pest or weed control at 62.5 g/ha [10]: 90%; pest or weed control at 250 g/ha [10]: 90%; pest or weed control at 15.625 g/ha [11]: 0%; pest or weed control at 62.5 g/ha [11]: 0%; pest or weed control at 250 g/ha [11]: 0%; pest or weed control at 15.625 g/ha [12]: 20%; pest or weed control at 62.5 g/ha [12]: 30%; pest or weed control at 250 g/ha [12]: 80%
CN1C[C@@H](c2ccc(C(F)(F)F)cc2)[C@H](C(=O)Nc2cccnc2Cl)C1=O (racemic) [Compound 1517]	0	10	20	0	0	20	0	10	80	20	60	60	20	30	70	0	50	70	0	0	pest or weed control at 250 g/ha [7]: 0%; pest or weed control at 15.625 g/ha [8]: 0%; pest or weed control at 62.5 g/ha [8]: 0%; pest or weed control at 250 g/ha [8]: 60%; plant injury at 15.625 g/ha (corn (Zea mays) [9]): 0%; plant injury at 62.5 g/ha (corn (Zea mays) [9]): 0%; plant injury at 250 g/ha (corn (Zea mays) [9]): 20%; pest or weed control at 15.625 g/ha [10]: 30%; pest or weed control at 62.5 g/ha [10]: 70%; pest or weed control at 250 g/ha [10]: 80%; pest or weed control at 15.625 g/ha [11]: 0%; pest or weed control at 62.5 g/ha [11]: 0%; pest or weed control at 250 g/ha [11]: 0%; pest or weed control at 15.625 g/ha [12]: 0%; pest or weed control at 62.5 g/ha [12]: 70%; pest or weed control at 250 g/ha [12]: 90%
CSc1nc(NC(=O)[C@@H]2C(=O)N(C)C[C@H]2c2ccc(C(F)(F)F)cc2)n[nH]1 (racemic) [Compound 1539]	0	0	0	0	0	0	0	0	0	0	0	0	0	0	0	0	0	0	0	0	pest or weed control at 250 g/ha [7]: 0%; pest or weed control at 15.625 g/ha [8]: 0%; pest or weed control at 62.5 g/ha [8]: 0%; pest or weed control at 250 g/ha [8]: 0%; plant injury at 15.625 g/ha (corn (Zea mays) [9]): 0%; plant injury at 62.5 g/ha (corn (Zea mays) [9]): 0%; plant injury at 250 g/ha (corn (Zea mays) [9]): 0%; pest or weed control at 15.625 g/ha [10]: 0%; pest or weed control at 62.5 g/ha [10]: 10%; pest or weed control at 250 g/ha [10]: 20%; pest or weed control at 15.625 g/ha [11]: 0%; pest or weed control at 250 g/ha [11]: 0%; pest or weed control at 15.625 g/ha [12]: 0%; pest or weed control at 62.5 g/ha [12]: 10%; pest or weed control at 250 g/ha [12]: 20%
